Results taken from PubChem BioAssay (NCI).
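In this assay, cells in 96-well plates receive the compound at five concentrations for 48 hours. Endpoints are linearly interpolated between the surrounding concentrations. At the GI50, growth is halved. TGI: total growth inhibition.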

Columns and labels:
Test in all cases: DTP human tumour cell line panel, 48 h
786-0 renal = system: 786-0 renal
A498 renal = system: A498 renal
A549 NSCLC = system: A549 NSCLC
ACHN renal = system: ACHN renal
BT-549 breast = system: BT-549 breast
CAKI-1 renal = system: CAKI-1 renal
CCRF-CEM leukemia = system: CCRF-CEM leukemia
COLO 205 colon = system: COLO 205 colon
DU-145 prostate = system: DU-145 prostate
EKVX NSCLC = system: EKVX NSCLC
HCC-2998 colon = system: HCC-2998 colon
HCT-116 colon = system: HCT-116 colon
HCT-15 colon = system: HCT-15 colon
HL-60(TB) leukemia = system: HL-60(TB) leukemia
HOP-62 NSCLC = system: HOP-62 NSCLC
HOP-92 NSCLC = system: HOP-92 NSCLC
HT29 colon = system: HT29 colon
IGROV1 ovarian = system: IGROV1 ovarian
K-562 leukemia = system: K-562 leukemia
KM12 colon = system: KM12 colon
LOX IMVI melanoma = system: LOX IMVI melanoma
M14 melanoma = system: M14 melanoma
MALME-3M melanoma = system: MALME-3M melanoma
MCF7 breast = system: MCF7 breast
MDA-MB-231 breast = system: MDA-MB-231 breast
MDA-MB-435 = system: MDA-MB-435
MDA-MB-468 breast = system: MDA-MB-468 breast
MOLT-4 leukemia = system: MOLT-4 leukemia
NCI-H226 lung = system: NCI-H226 lung
NCI-H23 lung = system: NCI-H23 lung
NCI-H460 lung = system: NCI-H460 lung
NCI-H522 lung = system: NCI-H522 lung
NCI/ADR-RES ovarian = system: NCI/ADR-RES ovarian
OVCAR-3 ovarian = system: OVCAR-3 ovarian
OVCAR-4 ovarian = system: OVCAR-4 ovarian
OVCAR-5 ovarian = system: OVCAR-5 ovarian
OVCAR-8 ovarian = system: OVCAR-8 ovarian
PC-3 prostate = system: PC-3 prostate
RPMI-8226 leukemia = system: RPMI-8226 leukemia
RXF 393 renal = system: RXF 393 renal
SF-268 CNS = system: SF-268 CNS
SF-295 CNS = system: SF-295 CNS
SF-539 CNS = system: SF-539 CNS
SK-MEL-2 melanoma = system: SK-MEL-2 melanoma
SK-MEL-28 melanoma = system: SK-MEL-28 melanoma
SK-MEL-5 melanoma = system: SK-MEL-5 melanoma
SK-OV-3 ovarian = system: SK-OV-3 ovarian
SN12C renal = system: SN12C renal
SNB-19 CNS = system: SNB-19 CNS
SNB-75 CNS = system: SNB-75 CNS
SR leukemia = system: SR leukemia
SW-620 colon = system: SW-620 colon
T-47D breast = system: T-47D breast
TK-10 renal = system: TK-10 renal
U251 CNS = system: U251 CNS
UACC-257 melanoma = system: UACC-257 melanoma
UACC-62 melanoma = system: UACC-62 melanoma
UO-31 renal = system: UO-31 renal

Oc1ccc(Cl)c(Nc2nc(SCCN3CCOCC3)nc3c2cnn3CC(Cl)c2ccc(Br)cc2)c1 (stereo unspecified)
GI50 (786-0 renal): 15.4 µM
TGI (786-0 renal): 93.3 µM
GI50 (A498 renal): 12.1 µM
TGI (A498 renal): > 100 µM
GI50 (A549 NSCLC): 4.75 µM
TGI (A549 NSCLC): 54.1 µM
GI50 (ACHN renal): 3.62 µM
TGI (ACHN renal): > 100 µM
GI50 (BT-549 breast): 26.3 µM
TGI (BT-549 breast): > 100 µM
GI50 (CAKI-1 renal): 6.63 µM
TGI (CAKI-1 renal): > 100 µM
GI50 (CCRF-CEM leukemia): 3.17 µM
TGI (CCRF-CEM leukemia): > 100 µM
GI50 (COLO 205 colon): 18.6 µM
TGI (COLO 205 colon): 42.3 µM
GI50 (DU-145 prostate): 6.33 µM
TGI (DU-145 prostate): > 100 µM
GI50 (EKVX NSCLC): 4.64 µM
TGI (EKVX NSCLC): > 100 µM
GI50 (HCC-2998 colon): 4.1 µM
TGI (HCC-2998 colon): 25.4 µM
GI50 (HCT-116 colon): 3.83 µM
TGI (HCT-116 colon): > 100 µM
GI50 (HCT-15 colon): 3.27 µM
TGI (HCT-15 colon): > 100 µM
GI50 (HL-60(TB) leukemia): 6.62 µM
TGI (HL-60(TB) leukemia): > 100 µM
GI50 (HOP-62 NSCLC): 6.24 µM
TGI (HOP-62 NSCLC): > 100 µM
GI50 (HOP-92 NSCLC): 2.57 µM
TGI (HOP-92 NSCLC): 9.21 µM
GI50 (HT29 colon): 6.22 µM
TGI (HT29 colon): 24.5 µM
GI50 (IGROV1 ovarian): 2.82 µM
TGI (IGROV1 ovarian): 10.3 µM
GI50 (K-562 leukemia): 0.378 µM
TGI (K-562 leukemia): > 100 µM
GI50 (KM12 colon): 5.83 µM
TGI (KM12 colon): > 100 µM
GI50 (LOX IMVI melanoma): 2.97 µM
TGI (LOX IMVI melanoma): 10.9 µM
GI50 (M14 melanoma): 4.49 µM
TGI (M14 melanoma): > 100 µM
GI50 (MALME-3M melanoma): 3.7 µM
TGI (MALME-3M melanoma): 19.9 µM
GI50 (MCF7 breast): 2.93 µM
TGI (MCF7 breast): > 100 µM
GI50 (MDA-MB-231 breast): 3.77 µM
TGI (MDA-MB-231 breast): 17.3 µM
GI50 (MDA-MB-435): 4.64 µM
TGI (MDA-MB-435): > 100 µM
GI50 (MDA-MB-468 breast): 2.2 µM
TGI (MDA-MB-468 breast): 6.28 µM
GI50 (MOLT-4 leukemia): 3.53 µM
TGI (MOLT-4 leukemia): > 100 µM
GI50 (NCI-H226 lung): 5.06 µM
TGI (NCI-H226 lung): > 100 µM
GI50 (NCI-H23 lung): 8.67 µM
TGI (NCI-H23 lung): 47.9 µM
GI50 (NCI-H460 lung): 4.12 µM
TGI (NCI-H460 lung): > 100 µM
GI50 (NCI-H522 lung): 2.92 µM
TGI (NCI-H522 lung): > 100 µM
GI50 (NCI/ADR-RES ovarian): 3.37 µM
TGI (NCI/ADR-RES ovarian): > 100 µM
GI50 (OVCAR-3 ovarian): 5.5 µM
TGI (OVCAR-3 ovarian): > 100 µM
GI50 (OVCAR-4 ovarian): 4.91 µM
TGI (OVCAR-4 ovarian): > 100 µM
GI50 (OVCAR-5 ovarian): 7.08 µM
TGI (OVCAR-5 ovarian): 84.6 µM
GI50 (OVCAR-8 ovarian): 3.89 µM
TGI (OVCAR-8 ovarian): > 100 µM
GI50 (PC-3 prostate): 3.08 µM
TGI (PC-3 prostate): > 100 µM
GI50 (RPMI-8226 leukemia): 3.54 µM
TGI (RPMI-8226 leukemia): > 100 µM
GI50 (RXF 393 renal): 1.11 µM
TGI (RXF 393 renal): 4.77 µM
GI50 (SF-268 CNS): 4.34 µM
TGI (SF-268 CNS): > 100 µM
GI50 (SF-295 CNS): 3.1 µM
TGI (SF-295 CNS): 19.1 µM
GI50 (SF-539 CNS): 4.43 µM
TGI (SF-539 CNS): > 100 µM
GI50 (SK-MEL-2 melanoma): 10.1 µM
TGI (SK-MEL-2 melanoma): 36.9 µM
GI50 (SK-MEL-28 melanoma): 6.03 µM
TGI (SK-MEL-28 melanoma): > 100 µM
GI50 (SK-MEL-5 melanoma): 3.95 µM
TGI (SK-MEL-5 melanoma): 15.2 µM
GI50 (SK-OV-3 ovarian): 17.1 µM
TGI (SK-OV-3 ovarian): > 100 µM
GI50 (SN12C renal): 3.17 µM
TGI (SN12C renal): > 100 µM
GI50 (SNB-19 CNS): 8.16 µM
TGI (SNB-19 CNS): > 100 µM
GI50 (SNB-75 CNS): 1.39 µM
TGI (SNB-75 CNS): 6.13 µM
GI50 (SR leukemia): 12.8 µM
TGI (SR leukemia): > 100 µM
GI50 (SW-620 colon): 11.3 µM
TGI (SW-620 colon): > 100 µM
GI50 (T-47D breast): 2.88 µM
TGI (T-47D breast): > 100 µM
GI50 (TK-10 renal): 18.2 µM
TGI (TK-10 renal): 54.7 µM
GI50 (U251 CNS): 5.75 µM
TGI (U251 CNS): > 100 µM
GI50 (UACC-257 melanoma): 13.7 µM
TGI (UACC-257 melanoma): > 100 µM
GI50 (UACC-62 melanoma): 5.44 µM
TGI (UACC-62 melanoma): 24 µM
GI50 (UO-31 renal): 2.04 µM
TGI (UO-31 renal): > 100 µM
